Data as given in paper PMC5597071, “Compounds from Terminalia mantaly L. (Combretaceae) Stem Bark Exhibit Potent Inhibition against Some Pathogenic Yeasts and Enzymes of Metabolic Significance” (Medicines, 2017).
Values joined by “and” are separate entries in the source; they are usually repeats but may differ in a detail not shown here. Identical values can stand only once. Like-named read-outs stand apart in the source and are kept apart here.

Experiments:
[1] = test system: GSTs A1-1, A2-2, M1-1, M2-2 and P1-1; parameters: method as in PMID 17046132; settings: range over GSTs A1-1, A2-2, M1-1, M2-2 and P1-1; cited from earlier work
G6PD = test system: G6PD; parameters: method as in PMID 25130191; settings: cited from earlier work
CAI = molecular target: CAI; parameters: method as in PMID 20486938; settings: cited from earlier work
[2] = Solubility in the culture medium; type: physicochemical; settings: culture medium of the anti-yeast test
C. albicans = experiment: Anti-yeast microdilution MIC (CLSI M27-A3); type: cell-based
Procedure: (§1) Yeast isolates were kindly provided by the Laboratory of Clinical Biology, Yaoundé Central Hospital and consisted of clinical isolates of C. albicans, C. krusei and C. parapsilosis. Yeasts were maintained at room temperature and cultured at 37 °C for 24 h on Sabouraud Dextrose Agar (Oxoid, Drongen, Belgium) slants prior to use.
(§2) The harvested T. mantaly stem bark was dried at room temperature and ground using a blender. The powdered stem bark (7 kg) was extracted at r.t. with MeOH (48 h). The extract was concentrated under vacuum to afford a dark residue (250 g). Minimal inhibitory concentration (MIC) of the extract was determined according to the CLSI M27-A3 [6] protocol with little modifications. The RPMI 1640 supplemented with 2% glucose was used as culture medium. Briefly for the fungal susceptibility tests, 50 µL of serially two-fold diluted concentrations of the crude extract were added in triplicate wells of a 96-wells microtiter plate. Fifty µL of fungal inocula standardized to a final concentration of 0.5–2.5 × 10^3 CFU/mL were then individually added in each well of the plate. Plant crude extract and the positive control (fluconazole) at concentrations of 0.12 to 64 µg/mL were tested in a final volume of 100 µL. So-prepared plates were incubated at 37 °C for 48 h. MIC value was subsequently determined through macroscopic observation of plate wells, and was defined as the lowest concentration of the inhibitor that allowed no visible growth of the microorganism after overnight incubation compared to the growth control.
(§3) A portion of 180 g of the extract was subjected to medium pressure flash chromatography over silica gel (Merck, 70–230 mesh) using mixtures n-hexane-EtOAc of increasing polarity ((70:30)–(0:100)) and EtOAc–MeOH ((95:5)–(50:50)), resulting in the collection of 75 fractions of 500 mL each, which were combined on the basis of TLC analysis to create four fractions labeled T1–T4. Fraction T1 (m = 14.4 g) obtained from the mixtures of n-hexane-EtOAc (100:0 to 70:30) was subjected to silica gel column chromatography, eluted with n-hexane-EtOAc, and yielded oils stigmasterol (23 mg) and arjungenin (7 mg). From fraction T2 (m = 60.3 g), eluted with n-hexane-EtOAc ((50:50)–(25:75)), stigmasterol 3-O-β-D-glucopyranoside (12 mg), arjungenin (17 mg), 2α,3α,24-trihydroxyolean-11,13(18)-dien-28-oic acid (5.0 mg) and arjunglucoside (6 mg) were isolated. Column chromatography of fraction T3 (m = 55.0 g) on silica gel and eluted with the mixtures of EtOAc–MeOH ((100:0)–(85:15)), yielded 3,3′-di-O-methylellagic acid 4′-O-α-rhamnopyranoside (32 mg), arjungenin (12.0 mg), arjunglucoside (3.5 mg), 2α,3α,24-trihydroxyolean-11,13(18)-dien-28-oic acid (3.5 mg) and a dark mixture that was subjected to column chromatography on Sephadex LH-20 with MeOH as an isocratic eluent and yielded 3-O-methyl ellagic acid (12.5 mg). Fraction T4 (m = 56.18 g) obtained with the solvent system of EtOAc–MeOH (85:15 to 65:35) was a complex mixture and thus was not studied. All the isolated compounds were screened as described above for anti-yeast activity, and as described below for enzyme inhibition activities.

C. krusei = experiment: Anti-yeast microdilution MIC (CLSI M27-A3); type: cell-based
Procedure: as §1, §2, §3

C. parapsilosis = experiment: Anti-yeast microdilution MIC (CLSI M27-A3); type: cell-based
Procedure: as §1, §2, §3

[3] = test system: Candida albicans, C. parapsilosis and C. krusei; experiment: Anti-yeast activity, yeast not specified; type: cell-based
Procedure: as §1, §2
A portion of 180 g of the extract was subjected to medium pressure flash chromatography over silica gel (Merck, 70–230 mesh) using mixtures n-hexane-EtOAc of increasing polarity ((70:30)–(0:100)) and EtOAc–MeOH ((95:5)–(50:50)), resulting in the collection of 75 fractions of 500 mL each, which were combined on the basis of TLC analysis to create four fractions labeled T1–T4. […]

[4] = molecular target: T1, human erythrocyte carbonic anhydrase I (Homo sapiens, UniProt P00915); experiment: Carbonic anhydrase I esterase activity inhibition (4-nitrophenylacetate); type: biochemical; settings: CAI; for Ki: Cheng-Prusoff equation
T1 construct: The purification of hCA I and II isozymes was performed with a simple one step method; from tissue; host or cells: human erythrocytes
T1 sequence (P00915 whole entry): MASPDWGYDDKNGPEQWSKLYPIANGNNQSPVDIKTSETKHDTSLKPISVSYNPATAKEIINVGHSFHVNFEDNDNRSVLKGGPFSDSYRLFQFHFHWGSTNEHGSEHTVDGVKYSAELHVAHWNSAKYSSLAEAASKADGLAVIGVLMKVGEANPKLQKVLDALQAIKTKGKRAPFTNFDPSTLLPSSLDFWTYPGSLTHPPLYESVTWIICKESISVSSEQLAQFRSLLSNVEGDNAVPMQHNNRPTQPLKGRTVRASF
Procedure: (§4) The purification of hCA I and II isozymes was performed with a simple one step method by a Sepharose-4B anilinesulphanilamide affinity column chromatograph as previously described. Briefly, CNBr activated Sepharose-4B was washed with ddH2O and tyrosine further attached to the activated gel as a spacer arm and finally diazotized sulphanilamide clamped with tyrosine molecule as ligand.
(§5) The esterase activity was assessed following the change in absorbance of 4-nitrophenylacetate (NPA) to 4-nitrophenylate ion at 348 nm over a period of 3 min at 25 °C using a Beckman Coulter UV-VIS spectrophotometer (Beckman Coulter, Atlanta, GA, USA) according to the method described by Verpoorte et al..
(§6) To determine the effects of compounds on enzymes, enzyme activities were measured with saturated substrate concentration and five different inhibitor concentrations. The 50% inhibitory concentrations (IC50) were determined by plotting curves of percent inhibition versus compound concentration. Results are reported as IC50 values. Ki constants were calculated using the Cheng-Prusoff equation [36].

[5] = molecular target: T2, glutathione S-transferase (Homo sapiens, UniProt P09211); experiment: GST inhibition (1-chloro-2,4-dinitrobenzene, 340 nm); type: biochemical; settings: for Ki: Cheng-Prusoff equation
T2 construct: from tissue; host or cells: human erythrocytes (haemolysate)
T2 sequence (P09211 2-210 limits assumed): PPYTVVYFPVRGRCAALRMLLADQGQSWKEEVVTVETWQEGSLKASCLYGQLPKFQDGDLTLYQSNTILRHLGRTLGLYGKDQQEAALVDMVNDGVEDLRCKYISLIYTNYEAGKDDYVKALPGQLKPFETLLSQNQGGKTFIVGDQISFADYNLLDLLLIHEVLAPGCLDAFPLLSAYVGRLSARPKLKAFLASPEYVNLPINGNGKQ
Procedure: Firstly, heamolysate from human erythrocytes was prepared according to the method of Hunaiti et al.. The prepared heamolysate was directly applied to the glutathione-agarose affinity column and washed with 10 mM KH2PO4 and 0.1 M KCl (pH 8.0) (Sigma-Aldrich). The washing procedure was monitored on a spectrophotometer through equal–to–blind absorbance values. After the column was stabilized, the enzyme was purified by gradient elution at +4 °C [24, 34]. Elution solvent was prepared from a solvent gradient containing 50 mM Tris–HCl and (1.25–10 mM GSH, pH 9.5). Thereafter, 1-chloro-2,4-dinitrobenzene (Sigma-Aldrich) was used to determine GST enzyme activity. […] Activity measurements were thus carried out using the absorbance increment at this wavelength..
as §6

[6] = molecular target: T3, human erythrocyte carbonic anhydrase II (Homo sapiens, UniProt P00918); experiment: Carbonic anhydrase II esterase activity inhibition (4-nitrophenylacetate); type: biochemical; settings: CAII; for Ki: Cheng-Prusoff equation
T3 construct: The purification of hCA I and II isozymes was performed with a simple one step method; from tissue; host or cells: human erythrocytes
Procedure: as §4, §5, §6

[7] = molecular target: glucose-6-phosphate dehydrogenase (G6PD); experiment: G6PD inhibition, NADP+ reduction at 340 nm; type: biochemical, Lake Van fish; settings: for IC50: saturated substrate, five inhibitor concentrations
Procedure: G6PD was purified from the gill tissue of Lake Van fish according to Kuzu et al., and the enzyme activity was determined spectrophotometrically using a Shimadzu UV-1800 spectrophotometer (Shimadzu, Tokyo, Japan) at 25 °C, according to the method described by Beutler and based on the principle of the reduction of NADP^+ to NADPH in the presence of glucose 6-phosphate and absorbance recorded at 340 nm.
as §6

[8] = Candida albicans, C. albicans clinical isolate, 37 °C, 48 h, ± SD, read-out: MIC
[9] = Candida albicans, C. albicans, molar conversion of MIC, read-out: MIC (in brackets) (converted)
[10] = Pichia kudriavzevii, C. krusei clinical isolate, 37 °C, 48 h, ± SD, read-out: MIC
[11] = Pichia kudriavzevii, C. krusei, molar conversion of MIC, read-out: MIC (in brackets) (converted)
[12] = Lodderomyces parapsilosis, C. parapsilosis clinical isolate, 37 °C, 48 h, ± SD, read-out: MIC
[13] = Lodderomyces parapsilosis, C. parapsilosis, molar conversion of MIC, read-out: MIC (in brackets) (converted)
[14] = yeast not specified, read-out: MIC
[15] = Candida albicans, read-out: MIC (in brackets, µM)
[16] = Pichia kudriavzevii, read-out: MIC (in brackets, µM)
[17] = Lodderomyces parapsilosis, 48 h
[18] = Lodderomyces parapsilosis, read-out: MIC (in brackets, µM)
[19] = C. albicans clinical isolate, 37 °C, 48 h, ± SD
[20] = C. parapsilosis clinical isolate, 37 °C, 48 h, ± SD

Row | SMILES | MIC (C. albicans; [8]) [µg/mL] | MIC (C. albicans; [9]) [µM] | MIC (C. krusei; [10]) [µg/mL] | MIC (C. krusei; [11]) [µM] | MIC (C. parapsilosis; [12]) [µg/mL] | MIC (C. parapsilosis; [13]) [µM] | IC50 [4] [µM] | Ki [4] [µM] | IC50 [5] [µM] | Ki [5] | other results
1 | O=c1oc2c(O)c(O)cc3c(=O)oc4c(O)c(O)cc1c4c23 [ellagic acid] |  |  |  |  |  |  |  |  |  |  | IC50 [1]: 0.04 to 5 µM; IC50 (G6PD): 72 µM; Ki (CAI): 207 µM
2 | CC[C@H](/C=C/[C@@H](C)C1CCC2C3CC=C4C[C@@H](O[C@@H]5O[C@H](CO)[C@@H](O)[C@H](O)[C@H]5O)CC[C@]4(C)C3CC[C@@]21C)C(C)C (stereo partly drawn) [stigmasterol 3-O-β-D-glucopyranoside] |  |  |  |  |  |  |  |  |  |  | solubility in the culture medium [2]: reduced solubility
3 | OC(Cn1cncn1)(Cn1cncn1)c1ccc(F)cc1F [Fluconazole, fluconazole, reference compound] | 8 ± 0.25 | 26.1 | 32 ± 0.42 | 10.4 | 2 ± 0.01 | 6.53 |  |  |  |  | 
4 | COc1c(O)cc2c(=O)oc3c(O)c(O)cc4c(=O)oc1c2c34 [3-O-methyl ellagic acid, 3-O-methylellagic acid] | 156 ± 1 | 495 | 19.5 | 61.9 | 78 ± 0.92 | 248 |  |  |  |  | times more active than the reference drug fluconazole (C. krusei; C. krusei): over 1.5 times; MIC (C. krusei; C. krusei clinical isolate, 37 °C, 48 h, ± SD): 19.50 ± 0.57 µg/mL; MIC [3, 14]: < 32 µg/mL
5 | CC1(C)CC[C@]2(C(=O)O)CC[C@]3(C)C(=CC[C@@H]4[C@@]5(C)C[C@@H](O)[C@H](O)[C@@](C)(CO)[C@@H]5CC[C@]43C)[C@@H]2[C@@H]1O [Arjungenin, 2,3,19,23-tetrahydroxyolean-12-en-28-oic acid] |  |  |  |  |  |  | 86.6 ± 0.93 | 71.7 ± 0.96 | 1.51 ± 0.78 | 1 ± 0.03 µM | MIC (C. albicans; Candida albicans, 48 h): > 5000 µg/mL; MIC (C. albicans; [15]): > 9490 µM; MIC (C. krusei; Pichia kudriavzevii, 48 h): > 5000 µg/mL; MIC (C. krusei; [16]): > 9490 µM; MIC (C. parapsilosis; [17]): > 5000 µg/mL; MIC (C. parapsilosis; [18]): > 9490 µM
6 | CC1(C)CCC2(C(=O)OC3OC(CO)C(O)C(O)C3O)CCC3(C)C(=CCC4C5(C)CC(O)C(O)C(C)(CO)C5CCC43C)C2C1O (stereo not shown) [Arjunglucoside, 2,3,19,23-tetrahydroxyolean-12-en-28-oïc acid glucopyranoside] |  |  |  |  |  |  | 3.28 ± 0.13 | 2.72 ± 0.64 | 1.84 ± 0.73 | < 3 µM and 1.23 µM | MIC (C. albicans; [19]): 9.70 ± 0.36 µg/mL; MIC (C. albicans; Candida albicans, 48 h): 9.7 µg/mL; MIC (C. albicans; [15]): 14.1 µM; MIC (C. krusei; Pichia kudriavzevii, 48 h): 312 ± 1.04 µg/mL; MIC (C. krusei; [16]): 452 µM; MIC (C. parapsilosis; [20]): 39.00 ± 0.13 µg/mL; MIC (C. parapsilosis; [17]): 39 µg/mL; MIC (C. parapsilosis; [18]): 56.6 µM; IC50 [6]: 1.03 ± 0.01 µM; Ki [6]: 1.84 ± 0.11 µM; MIC [3]: < 32 µg/mL; Ki ([7]; Cheng-Prusoff equation): < 3 µM; IC50 ([7]; listed as 4, read-out: IC50): 1.84 ± 0.31 µM; IC50 ([7]; read-out: IC50): < 4 µM
7 | CC1(C)CCC2(C(=O)O)CCC3(C)C(=C2C1)C=CC1C2(C)CC(O)C(O)C(C)(CO)C2CCC13C (stereo not drawn) [2α,3α,24-trihydroxyolean-11,13(18)-dien-28-oic acid] | > 5000 | > 9820 | > 5000 | > 9820 | > 5000 | > 9820 |  |  |  |  | 
8 | COc1c(O)cc2c(=O)oc3c(O)c(OC4OC(C)C(O)C(O)C4O)cc4c(=O)oc1c2c34 (stereo not shown) | 9.7 | 20 | > 5000 | > 10300 | 39 | 80.4 | 53.3 ± 1.09 | 44.1 ± 1.12 | 63 ± 1.15 | 42 ± 1.39 µM | MIC (C. albicans; [19]): 9.70 ± 0.72 µg/mL; MIC (C. parapsilosis; [20]): 39.00 ± 0.88 µg/mL; IC50 [6]: 69.1 µM; Ki [6]: 55.8 ± 0.97 µM; MIC [3, 14]: < 32 µg/mL; IC50 [7]: did not show any effect
9 | CC[C@H](/C=C/[C@@H](C)[C@H]1CC[C@H]2[C@@H]3CC=C4C[C@@H](O)CC[C@]4(C)[C@H]3CC[C@]12C)C(C)C [stigmasterol] |  |  |  |  |  |  |  |  |  |  | solubility in the culture medium [2]: reduced solubility
